Data reported in patent US12053465B2, “KCC2 expression enhancing compounds and uses thereof” (Whitehead Institute for Biomedical Research, priority 2017, dated 2024).

Key:
human RTT neurons [1] = test: mEPSC whole-cell patch-clamp recording in cultured human RTT neurons; format: cell-based; conditions: for mEPSC frequency enhancement: RTT neurons with KCC2 shRNA transfection; for frequency of mEPSCs / mEPSC amplitude: cultured human RTT neurons; for mEPSC amplitude: vs DMSO control
Text: Moreover, a reduction in the number or the strength of excitatory glutamatergic synapses in RTT neurons has been observed in postmortem RTT patient brain samples (30), mouse models of RTT (53), and human stem cell-derived RTT neurons (54). Electrophysiology recording was utilized to assess whether KEECs could rescue the deficits in EGABA and excitatory synaptic transmission of RTT neurons. […] We further investigated whether the beneficial effect of KEECs is a direct result of the increases in neuronal KCC2 gene expression. […] Deficits in a number of morphological measurements, including nuclei size and neurite complexity and branching, are hallmarks of RTT neurons (54-56). […] To validate the morphological measurements, electrophysiological measurements of the neuronal membrane capacitance (Cm), an indicator of neuronal cell size (57) that is reduced in RTT neurons, were conducted.
Functionally mature human neuron cultures were obtained by seeding human WT or isogenic RTT NPCs on a layer of primary mouse astrocyte culture as previously described (57). In the cultured WT human neurons, KCC2 expression reaches mature level between 2-3 months (7). We therefore treated the WT or RTT human neurons 8-12 weeks in culture, with compounds for a duration of two weeks before conducting whole-cell patch-clamp recording. The extracellular bath solution, that perfused the recording chamber, consists of (in mM): 120 NaCl, 30 glucose, 25 HEPES, 5 KCl, 2 CaCl2, 1 MgCl2. The pH was adjusted to 7.3 with NaOH. The high-chloride internal pipette solution consists of (in mM): 147 KCl, 5 Na-phosphocreatine, 2 EGTA, 10 HEPES, 4 MgATP, and 0.5 Na2GTP; the pH 7.3 was adjusted with KOH. To record mini EPSC, the membrane potential was held at −70 mV, and 0.5 μM of TTX and 50 μM Picrotoxin were applied with bath solution to block action potential and GABAergic synaptic transmission.
To evoke GABA response, a pipette filled with 100 μM GABA solution was positioned 5-10 μm away from the neuronal cell body. Air pulses at the pressure of 10 p.s.i. and duration of 100 ms were generated with a Picrospritzer (Parker Instrumentation) to puff GABA solution onto neuronal cell body. Neuronal response to GABA puffs were recorded at different membrane holding potentials from −90 mV to +30 mV, and the EGABA values were calculated with linear regression. Electrophysiological signals were recorded with Multiclamp 700A patch-clamp amplifier and data were collected with Clamp 9 software (Molecular Devices, Palo Alto, CA), sampled at 10 kHz and filtered at 1 KHz. Off-line data analyses of mEPSC synaptic events were performed with MiniAnalysis software (Synaptosoft, Decator, GA). All experiments were performed at room temperature. A sample size of 5-8 neurons was used for EGABA measurements, while a sample size of 14-19 neurons was used for mEPSC measurements. All data were presented as mean±SEM. ANOVA test followed by the Bonferroni correction were used for statistical analysis. The Kolmogorov-Smirnov test was employed to compare the cumulative distribution between two datasets.

human RTT neurons [2] = test: Gramicidin-perforated patch recording of EGABA in cultured human RTT neurons; format: cell-based
Mecp2 mutant mice [3] = test: Plethysmograph breathing measurement in Mecp2 mutant mouse model of RTT; format: in vivo; conditions: male Mecp2 mutant mice; daily injection, two weeks; vs DMSO- or EtOH-injected control
Protocol: (§1) We assessed the in vivo efficacy of KEECs by treating RTT disease-related symptoms such as breathing pauses and reduced locomotion (58) in a Mecp2 mutant mouse model of RTT. […] Plethysmograph and locomotion measurements were made in 4-6 week-old male Mecp2 mutant animals as a pre-treatment control time point and were then injected daily with KEECs KW-2449 or Piperine. Injection of the solvent DMSO or ethanol (EtOH) served as vehicle controls (FIG. 15A). The same two behavioral measurements in vehicle or KEEC-injected Mecp2 mutant animals were performed again two weeks after the start of daily injections. Each animal's ‘after injection’ data were compared to the ‘before injection’ level to assess behavioral changes.
Male Mecp2 mutant mice (Mecp2^−/y, e.g. the Bird model) between 4-12 weeks of age were used for the in vivo experiments. Subjects were divided into drug treated KO (Piperine/KW-2449), and vehicle treated KO (EtOH/DMSO) groups. Animals were randomly assigned to treatment arms with approximately equivalent numbers in each group. […]
A full body plethysmograph chamber (EMKA Inc, PA) was used to measure breathing patterns. […] For each test, the subject was left in the chamber for 20 minutes, afterwards its breath pattern was recorded for the next 20 minutes, and the estimated amplitude modulation index (eAMI) was calculated from the breath trace to label breath pauses automatically. […]

immature mouse neurons = test: Gramicidin-perforated patch recording of EGABA in DIV6-7 immature mouse neurons; format: cell-based
Mecp2 mutant mice [4] = test: Locomotion (infrared beam break) in Mecp2 mutant mouse model of RTT; format: in vivo
Protocol: as §1
Male Mecp2 mutant mice (Mecp2^−/y, e.g. the Bird model) between 4-12 weeks of age were used for the in vivo experiments. Subjects were divided into drug treated KO (Piperine/KW-2449), and vehicle treated KO (EtOH/DMSO) groups. Animals were randomly assigned to treatment arms with approximately equivalent numbers in each group.
KW-2449 stock solution was prepared at 10 mg/ml with DMSO, and Piperine stock solution at 30 mg/ml with EtOH. 20 μl of stock solution were diluted with 1 ml saline for injection. Daily drug treatments or sham injections were performed on both groups between P28 and P56, for at least two weeks, as Mecp2 mutant mice start to show symptoms around P28 and die around P60. Both following tests were performed on both groups of mice before the injections start, and repeated at the end of the injection period. The animals' performance was then compared before and after drug/vehicle injections.
To measure the subjects' nighttime locomotion, a 1-D infrared light-beam frame (ActiMot, TSE-systems, MO) was used. Animals were single-housed in new cages with the same setup as their home cages. The infrared monitor was set up for each cage and the beam crossings was recorded between 17:00 and 9:00 the next morning, where the lights were turned off between 19:00 and 7:00. The average beam crossing frequency during the night (21:00-5:00) was used as the subject's activity score, and the average beam crossing frequency after lights on (7:00-9:00) was used as the subject's day time activity score. The time periods where the mouse is stationary for >5 minutes are discarded to reduce artifact caused by the mouse sleeping. As we look at both day-time and night-time locomotion, a bonferroni correction with repeated comparison number of 2 was applied. All behavioral analyses were performed by experimenters who were blind to the treatment condition.

Structure (SMILES) | mEPSC frequency enhancement (human RTT neurons [1]) | frequency of mEPSCs (human RTT neurons [1]) | mEPSC amplitude (human RTT neurons [1]) | shift in EGABA (human RTT neurons [2]; RTT neurons transfected with KCC2 shRNA) | shift in EGABA (human RTT neurons [2]; cultured human RTT neurons, DMSO about −50 mV, WT −70 mV) | frequency of breathing pauses (Mecp2 mutant mice [3]) | EGABA after treatment (immature mouse neurons; DIV6-7 immature mouse neurons, untreated about −50 mV) | significant hyperpolarizing shift in EGABA (immature mouse neurons; DIV6 cultured immature mouse neurons) | night-time locomotion (infrared beam break frequency in home cage) (Mecp2 mutant mice [4]; Mecp2 mutant animals, vs DMSO control) | locomotive activities (Mecp2 mutant mice [4]; male Mecp2 mutant mice, daily injection, two weeks, vs DMSO- or EtOH-injected control)
O=C1Nc2cc(Br)ccc2/C1=C1/Nc2ccccc2/C1=N\O [BIO, (2Z,3E)-6′-bromo-3-(hydroxyimino)-[2,3′-biindolinylidene]-2′-one] | abolished the effect | significantly increased the frequency of mEPSCs to levels equivalent to WT control | significantly increased mEPSC amplitude |  |  |  |  |  |  | 
O=C(c1ccc(/C=C/c2n[nH]c3ccccc23)cc1)N1CCNCC1 [KW-2449, (E)-(4-(2-(1H-indazol-3-yl)vinyl)phenyl)(piperazin-1-yl)methanone] | abolished the effect | significantly increased the frequency of mEPSCs to levels equivalent to WT control | significantly increased mEPSC amplitude | failed to hyperpolarize the EGABA | significant hyperpolarizing shift in EGABA to levels comparable to WT neurons | significantly reduced the frequency of breathing pauses | about −70 mV | induces significant hyperpolarizing shift in EGABA | significantly increased night-time locomotion | remarkable increase in locomotive activities
